Results taken from ChEMBL document CHEMBL3046904, “Synthesis, characterization, bioactivity, and POM analyses of isothiochromeno[3,4-e][1,2]oxazines” (2013).

Legend:
Assay type in all cases: functional
[1] = system: SF-268; test: Cytotoxicity against Homo sapiens (human) SF268 assessed as cell growth at 10^-4 M after 48 hr by Alamar Blue assay; details: SF-268, 48 h, read-out: Activity
[2] = system: NCI-H460; test: Cytotoxicity against Homo sapiens (human) NCI-H460 assessed as cell growth at 10^-4 M after 48 hr by Alamar Blue assay; details: NCI-H460, 48 h, read-out: Activity
[3] = system: MCF7; test: Cytotoxicity against Homo sapiens (human) MCF7 assessed as cell growth at 10^-4 M after 48 hr by Alamar Blue assay; details: MCF7, 48 h, read-out: Activity
[4] = system: HOP-92; test: Cytotoxicity against Homo sapiens (human) HOP92 after 48 hr by Alamar Blue assay; details: HOP-92, 48 h
[5] = system: NCI/ADR-RES; test: Cytotoxicity against Homo sapiens (human) NCI/ADR-RES after 48 hr by Alamar Blue assay
[6] = system: OVCAR-5; test: Cytotoxicity against Homo sapiens (human) OVCAR5 after 48 hr by Alamar Blue assay; details: OVCAR-5, 48 h
[7] = system: SK-MEL-2; test: Cytotoxicity against Homo sapiens (human) SK-MEL-2 after 48 hr by Alamar Blue assay; details: SK-MEL-2, 48 h
[8] = system: HCT-15; test: Cytotoxicity against Homo sapiens (human) HCT15 after 48 hr by Alamar Blue assay; details: HCT-15, 48 h
[9] = system: U-251; test: Cytotoxicity against Homo sapiens (human) U251 after 48 hr by Alamar Blue assay; details: U-251, 48 h
[10] = system: HOP-62; test: Cytotoxicity against Homo sapiens (human) HOP62 after 48 hr by Alamar Blue assay; details: HOP-62, 48 h
[11] = system: KM12; test: Cytotoxicity against Homo sapiens (human) KM12 after 48 hr by Alamar Blue assay; details: KM12, 48 h
[12] = system: NCI-H23; test: Cytotoxicity against Homo sapiens (human) NCI-H23 after 48 hr by Alamar Blue assay; details: NCI-H23, 48 h
[13] = system: UO-31; test: Cytotoxicity against Homo sapiens (human) UO31 after 48 hr by Alamar Blue assay; details: UO-31, 48 h
[14] = system: 786-0; test: Cytotoxicity against Homo sapiens (human) 786-0 after 48 hr by Alamar Blue assay; details: 786-0, 48 h
[15] = system: SF-295; test: Cytotoxicity against Homo sapiens (human) SF295 after 48 hr by Alamar Blue assay; details: SF-295, 48 h
[16] = system: HCC 2998; test: Cytotoxicity against Homo sapiens (human) HCC2998 after 48 hr by Alamar Blue assay; details: HCC 2998, 48 h
[17] = system: OVCAR-3; test: Cytotoxicity against Homo sapiens (human) OVCAR3 after 48 hr by Alamar Blue assay; details: OVCAR-3, 48 h
[18] = system: K562; test: Cytotoxicity against Homo sapiens (human) K562 after 48 hr by Alamar Blue assay; details: K562, 48 h
[19] = system: ACHN; test: Cytotoxicity against Homo sapiens (human) ACHN after 48 hr by Alamar Blue assay
[20] = system: SN12C; test: Cytotoxicity against Homo sapiens (human) SN12C after 48 hr by Alamar Blue assay
[21] = system: OVCAR-8; test: Cytotoxicity against Homo sapiens (human) OVCAR8 after 48 hr by Alamar Blue assay; details: OVCAR-8, 48 h
[22] = Cytotoxicity against Homo sapiens (human) HL-60(TB) after 48 hr by Alamar Blue assay; details: HL-60, 48 h
[23] = system: Hs-578T; test: Cytotoxicity against Homo sapiens (human) Hs 578T after 48 hr by Alamar Blue assay
[24] = system: COLO 205; test: Cytotoxicity against Homo sapiens (human) COLO205 after 48 hr by Alamar Blue assay; details: COLO 205, 48 h
[25] = system: M14; test: Cytotoxicity against Homo sapiens (human) M14 after 48 hr by Alamar Blue assay; details: M14, 48 h
[26] = system: CAKI-1; test: Cytotoxicity against Homo sapiens (human) Caki1 after 48 hr by Alamar Blue assay; details: CAKI-1, 48 h
[27] = system: SR; test: Cytotoxicity against Homo sapiens (human) SR after 48 hr by Alamar Blue assay
[28] = system: SK-MEL-28; test: Cytotoxicity against Homo sapiens (human) SK-MEL-28 after 48 hr by Alamar Blue assay; details: SK-MEL-28, 48 h
[29] = system: NCI-H460; test: Cytotoxicity against Homo sapiens (human) NCI-H460 after 48 hr by Alamar Blue assay; details: NCI-H460, 48 h
[30] = system: TK-10; test: Cytotoxicity against Homo sapiens (human) TK10 after 48 hr by Alamar Blue assay; details: TK-10, 48 h
[31] = system: LOX IMVI; test: Cytotoxicity against Homo sapiens (human) LOXIMVI after 48 hr by Alamar Blue assay
[32] = system: HCT-116; test: Cytotoxicity against Homo sapiens (human) HCT116 after 48 hr by Alamar Blue assay; details: HCT-116, 48 h
[33] = system: UACC-62; test: Cytotoxicity against Homo sapiens (human) UACC62 after 48 hr by Alamar Blue assay; details: UACC-62, 48 h
[34] = system: EKVX; test: Cytotoxicity against Homo sapiens (human) EKVX after 48 hr by Alamar Blue assay
[35] = system: MDA-MB-231; test: Cytotoxicity against Homo sapiens (human) MDA-MB-231 after 48 hr by Alamar Blue assay; details: MDA-MB-231, 48 h
[36] = system: A549; test: Cytotoxicity against Homo sapiens (human) A549 after 48 hr by Alamar Blue assay; details: A549, 48 h
[37] = system: T47D; test: Cytotoxicity against Homo sapiens (human) T47D after 48 hr by Alamar Blue assay
[38] = system: BT-549; test: Cytotoxicity against Homo sapiens (human) BT549 after 48 hr by Alamar Blue assay; details: BT-549, 48 h
[39] = system: NCI-H226; test: Cytotoxicity against Homo sapiens (human) NCI-H226 after 48 hr by Alamar Blue assay; details: NCI-H226, 48 h
[40] = system: RPMI-8226; test: Cytotoxicity against Homo sapiens (human) RPMI8226 after 48 hr by Alamar Blue assay; details: RPMI-8226, 48 h
[41] = system: DU-145; test: Cytotoxicity against Homo sapiens (human) DU145 after 48 hr by Alamar Blue assay; details: DU-145, 48 h
[42] = system: NCI-H322M; test: Cytotoxicity against Homo sapiens (human) NCI-H322M after 48 hr by Alamar Blue assay
[43] = system: Malme-3M; test: Cytotoxicity against Homo sapiens (human) MALME-3M after 48 hr by Alamar Blue assay
[44] = system: MOLT-4; test: Cytotoxicity against Homo sapiens (human) MOLT4 after 48 hr by Alamar Blue assay; details: MOLT-4, 48 h
[45] = system: SW-620; test: Cytotoxicity against Homo sapiens (human) SW620 after 48 hr by Alamar Blue assay; details: SW-620, 48 h
[46] = system: SK-MEL-5; test: Cytotoxicity against Homo sapiens (human) SK-MEL-5 after 48 hr by Alamar Blue assay; details: SK-MEL-5, 48 h
[47] = system: SF-539; test: Cytotoxicity against Homo sapiens (human) SF539 after 48 hr by Alamar Blue assay; details: SF-539, 48 h
[48] = system: IGROV-1; test: Cytotoxicity against Homo sapiens (human) IGROV1 after 48 hr by Alamar Blue assay; details: IGROV-1, 48 h
[49] = system: MDA-MB-435; test: Cytotoxicity against Homo sapiens (human) MDA-MB-435 after 48 hr by Alamar Blue assay; details: MDA-MB-435, 48 h
[50] = system: SF-268; test: Cytotoxicity against Homo sapiens (human) SF268 after 48 hr by Alamar Blue assay; details: SF-268, 48 h
[51] = system: OVCAR-4; test: Cytotoxicity against Homo sapiens (human) OVCAR4 after 48 hr by Alamar Blue assay; details: OVCAR-4, 48 h
[52] = system: MCF7; test: Cytotoxicity against Homo sapiens (human) MCF7 after 48 hr by Alamar Blue assay; details: MCF7, 48 h
[53] = system: NCI-H522; test: Cytotoxicity against Homo sapiens (human) NCI-H522 after 48 hr by Alamar Blue assay; details: NCI-H522, 48 h
[54] = system: HT-29; test: Cytotoxicity against Homo sapiens (human) HT-29 after 48 hr by Alamar Blue assay; details: HT-29, 48 h
[55] = system: PC-3; test: Cytotoxicity against Homo sapiens (human) PC3 after 48 hr by Alamar Blue assay; details: PC-3, 48 h
[56] = system: UACC-257; test: Cytotoxicity against Homo sapiens (human) UACC257 after 48 hr by Alamar Blue assay; details: UACC-257, 48 h
[57] = system: RXF 393; test: Cytotoxicity against Homo sapiens (human) RXF393 after 48 hr by Alamar Blue assay; details: RXF 393, 48 h
[58] = system: SNB-19; test: Cytotoxicity against Homo sapiens (human) SNB19 after 48 hr by Alamar Blue assay; details: SNB-19, 48 h
[59] = system: A498; test: Cytotoxicity against Homo sapiens (human) A498 after 48 hr by Alamar Blue assay; details: A498, 48 h

Cc1ccc(C2=C3SC=c4ccccc4=C3ON=C2c2ccc([N+](=O)[O-])cc2)cc1
growth at 100 µM [1]: 83%
growth at 100 µM [2]: 99%
growth at 100 µM [3]: 97%

Cc1ccc(C2=C3SC=c4ccccc4=C3ON=C2c2ccc(Cl)cc2)cc1
GI50 [4]: 26.5 µM
GI50 [5]: > 100 µM
growth at 100 µM [1]: 37%
GI50 [6]: > 100 µM
GI50 [7]: > 100 µM
GI50 [8]: 81.2 µM
GI50 [9]: 20 µM
GI50 [10]: > 100 µM
GI50 [11]: > 100 µM
GI50 [12]: 16.6 µM
GI50 [13]: > 100 µM
GI50 [14]: 21.2 µM
GI50 [15]: > 100 µM
GI50 [16]: > 100 µM
GI50 [17]: > 100 µM
GI50 [18]: 20.6 µM
GI50 [19]: > 100 µM
growth at 100 µM [2]: 91%
GI50 [20]: 11.3 µM
GI50 [21]: 11.6 µM
GI50 [22]: 18.2 pM
GI50 [23]: > 100 µM
GI50 [24]: 46.2 µM
GI50 [25]: > 100 µM
GI50 [26]: > 100 µM
GI50 [27]: 36.5 µM
GI50 [28]: > 100 µM
GI50 [29]: > 100 µM
GI50 [30]: > 100 µM
GI50 [31]: 50 µM
GI50 [32]: 62.7 µM
GI50 [33]: > 100 µM
GI50 [34]: > 100 µM
growth at 100 µM [3]: 2%
GI50 [35]: > 100 µM
GI50 [36]: > 100 µM
GI50 [37]: 31.4 µM
GI50 [38]: 41.2 µM
GI50 [39]: > 100 µM
GI50 [40]: 11.8 µM
GI50 [41]: > 100 µM
GI50 [42]: > 100 µM
GI50 [43]: 22.1 µM
GI50 [44]: 12.5 µM
GI50 [45]: 55.6 µM
GI50 [46]: 53.1 µM
GI50 [47]: > 100 µM
GI50 [48]: > 10 µM
GI50 [49]: 44.2 µM
GI50 [50]: 12.1 µM
GI50 [51]: > 100 µM
GI50 [52]: 31.2 µM
GI50 [53]: 15.1 µM
GI50 [54]: > 100 µM
GI50 [55]: 21.6 µM
GI50 [56]: 25.6 µM
GI50 [57]: > 100 µM
GI50 [58]: > 100 µM
GI50 [59]: > 100 µM

COc1ccc(C2=C3SC=c4ccccc4=C3ON=C2c2ccc(C)cc2)cc1
growth at 100 µM [1]: 103%
growth at 100 µM [2]: 84%
growth at 100 µM [3]: 98%

COc1ccc(C2=NOC3=c4ccccc4=CSC3=C2c2ccc(OC)cc2)cc1
growth at 100 µM [1]: 105%
growth at 100 µM [2]: 102%
growth at 100 µM [3]: 116%
